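Method: 48-hour compound exposure of cells in 96-well plates, five concentrations, linear interpolation of endpoints. GI50 marks 50% less growth. TGI: concentration producing complete growth inhibition.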
Legend:
Assay in all cases: NCI anticancer screen, dose series, 48 h
A498 renal = test system: A498 renal
CCRF-CEM leukemia = test system: CCRF-CEM leukemia
OVCAR-5 ovarian = test system: OVCAR-5 ovarian
OVCAR-8 ovarian = test system: OVCAR-8 ovarian
SF-295 CNS = test system: SF-295 CNS
SK-MEL-2 melanoma = test system: SK-MEL-2 melanoma
SN12C renal = test system: SN12C renal
DU-145 prostate = test system: DU-145 prostate
HS 578T breast = test system: HS 578T breast
T-47D breast = test system: T-47D breast

Compound	TGI (A498 renal) [µM]	TGI (CCRF-CEM leukemia) [µM]	TGI (OVCAR-5 ovarian) [µM]	TGI (OVCAR-8 ovarian) [µM]	TGI (SF-295 CNS) [µM]	TGI (SK-MEL-2 melanoma) [µM]	TGI (SN12C renal) [µM]	GI50 (CCRF-CEM leukemia) [µM]	GI50 (DU-145 prostate) [µM]	TGI (DU-145 prostate) [µM]	GI50 (HS 578T breast) [µM]	TGI (HS 578T breast) [µM]	GI50 (OVCAR-5 ovarian) [µM]	GI50 (OVCAR-8 ovarian) [µM]	GI50 (SF-295 CNS) [µM]	GI50 (SK-MEL-2 melanoma) [µM]	GI50 (T-47D breast) [µM]	TGI (T-47D breast) [µM]	GI50 (SN12C renal) [µM]	GI50 (A498 renal) [µM]
CC(C)Cc1ccc(C(C)/C=C2\CCC(CN3CCCC3)C2=O)cc1 (stereo not drawn)	36.5	8.71	36.3	18	30.8	31.8	13.3													
Cc1cccc2c1O/C(=C\c1ncc([N+](=O)[O-])n1C)C2=O		0.597	4.45		2.62	0.584		0.0701	0.238	0.762	0.375	4.7	0.576	0.166	0.516	0.246	9.23	58.7		
COc1cc([C@@H]2c3cc4c(cc3[C@@H](NCc3ccc(C#N)cc3)C3COC(=O)[C@@H]32)OCO4)cc(OC)c1O (stereo partly drawn)	3.84	7.01	8.71	3.01	> 100	6.54	3.02													
CCCC1C(=O)C(CC)Cc2c(OC)ccc(OC)c21 (stereo not drawn)		> 100	> 100	> 100	> 100	> 100	> 100													
CCCCCCCC(=O)OCC1OC(n2cc(F)c(=O)[nH]c2=O)C(NC(=O)OCc2ccccc2)C(OC(=O)CCCCCCC)C1O (stereo not drawn)	> 100	66.1		> 100	> 100	57.1	27.4													
CC([C@H]1CCC2C3CCC4CC5(CC[C@]4(C)C3CC[C@@]21C)c1ccccc1C(=O)N5C)N(C)C (stereo partly drawn)	> 100	> 100	> 100	> 100	48.5	42.9	> 100													
NCCCn1c2c(c3cc4c(cc3c1=O)OCO4)C(=O)c1ccccc1-2		0.379		1.14	1.48	> 70.3	2.49	0.0279	0.907	2.63	1.88	4.4		0.142	0.483	2.91	5.18	> 100	0.975	
O=C(c1cc2c(C(F)(F)F)onc2c2ccccc12)C(F)(F)F	34.9	21.6	> 100	7.66	> 29.3	13.6	7.85													
CC(=O)O[C@H]1CCC2[C@@H]3CCC4Nc5c(cnn5-c5ccccc5)C[C@]4(C)C3CC[C@@]21C (stereo partly drawn)	> 100	39.5	60.1	39.6	10.7	35.8	41.4													
CCC(O)(c1ccc(OC)cc1)C(c1ccc(OCc2ccccc2)cc1)c1ccc(OCc2ccccc2)cc1 (stereo not drawn)	> 100	> 100	> 100	> 100	> 100	> 100	> 100													
COc1cccc(-c2nc(-c3ccc(NC(=O)c4ccccc4)cc3)[nH]c2-c2ccnc(Br)c2)c1	6.5	> 100	> 100	> 100		> 100		3.15			0.339	1.75	6.09	4.02		2.93	2.44	> 100		1.74
O=C(COc1ccc(Cl)cc1)N1N=C(c2ccc([N+](=O)[O-])o2)CC1(O)c1ccccc1 (stereo not drawn)			29.7	23.6	22.6	21	15.8													
COc1cc2ccc(/C(C)=N/OC(C)=O)cc2cc1OC	76.9	> 100	> 100	> 100	> 100	> 100	> 100													
NC1=NC(c2ccccc2)CC(c2cc(Cl)cc(Br)c2O)=N1 (stereo not drawn)	35.7	35.6	34.4	38.5	23.7	18.6	30.3													
CC(=O)NNC(=S)/N=C/c1c(O)cc(C)oc1=O			> 100	> 100	> 100	> 100	> 100			> 100								> 100		
C/C(=N\NS(=O)(=O)c1ccc(C)cc1)c1c(O)cc(C)oc1=O	> 100	> 100		> 100	> 100	> 100	> 100													
Cc1[nH]c2ccccc2c1C1CC(=O)NC1=O (stereo not drawn)	> 100	> 100	> 100	> 100	> 100	> 100														
CC(Oc1ccc(OCC2CCCCC2)cc1)C(=O)O (stereo not drawn)		> 100		> 100	> 100	> 100	> 100													
Cc1ccc(C(=O)CCC2C(=O)CC(C)(C)CC2=O)cc1		55.1	> 100	> 100	> 100	> 100	> 100			> 100		> 100								
Oc1cccc(Cn2c(-c3cccc(O)c3O)nc3ccccc32)c1O	60.4	> 100	48.1	53.1	10.5	> 100	16.3	7.56	4.89	20.5	26.9	> 100	10.9	11.7	1.88	42			3.4	17.6
CCN(CC)CCOC(=O)/C(=C/c1ccc(OC)cc1)c1cc(OC)c(OC)c(OC)c1	8.64	> 100	43.7	74.2	6.3		57.5													
CC(C)c1cccc(C(C)C)c1N=C(N)C#N	> 100	> 100	> 100	> 100	> 100	> 100	> 100													
CCN(CC)C(=O)CNC(=O)OC(C)(C)C	> 100	> 100	> 100	> 100	> 100	> 100	> 100													
